Measured values as given in patent publication US10058579B2, “Dietary supplements containing extracts of cinnamon and methods of using same to promote enhanced sirtuin, cell and telomere integrity” (IN Ingredients, Inc., priority 2010, dated 2018).

System: SIRT family mRNA expression
Test: sirtuin (SIRT family) mRNA expression in rat primary enterocytes, quantitative PCR
Assay type: cell-based
Settings: 2 μg/ml; enterocytes of chow-fed rats; FIG. 2
Text: The baseline value for the effects of a high fructose diet on SIRT family mRNA expression is established. The experimental protocols parallel those of Firestein, R., et al., PLoS ONE, 2008; 3(4): e2020. doi:10.1371/journal.pone.0002020 except using Wistar rats. The animals fed ad libitum with water and either a standard chow diet or a high fructose diet. Primary enterocytes are obtained from animals (6 months of age) following sacrifice and rapid harvest of the intestine. The isolated intestine is thoroughly flushed with ice cold PBS.
Total RNA is isolated from primary enterocyte tissue obtained as above, adipose tissue (obtained by biopsy), or liver (obtained by biopsy) using TR1 reagent (Applied Biosystems, Austin, Tex.), according to the manufacturer's guidelines. The resulting total RNA is subjected to DNase treatment using RNase-free DNase (Ambion). The purity of isolated RNA is measured by a NanoDrop spectrophotometer. A set concentration of RNA is reverse transcribed into cDNA using SuperScript II RT, and quantitative PCR is performed on ABI Prism 7500 Sequence Detection System (Applied Biosystems, Carlsbad, Calif.) using SYBR Green PCR Master Mix (Applied Biosystems, Carlsbad, Calif.).
The level of sirtuin mRNA expression is assayed following exposure of rat primary enterocytes to the anthocyanin delphinidin. […]

Oc1cc(O)c2cc(O)c(-c3cc(O)c(O)c(O)c3)[o+]c2c1 [delphinidin]
increase of sirtuin gene expression as measured by mRNA levels over control: 2-3 fold
